How the values were obtained:
[1] = tested on: APLP2-Gal4 transactivation in HEK293T cells; experiment: APLP2-Gal4/Mint3/TAZ transactivation assay; format: cell-based; conditions: Mint3 and TAZ present; galangin at 10 μM
Excerpt: (§1) FIGS. 7A and 7B illustrate inhibition of APP-Gal4 and APLP2-Gal4 transactivation by galangin. […] This transactivation was inhibited by Galangin and BACE inhibitor IV. FIG. 7B: Potent transactivation of transcription was also achieved with APLP2 fused to the Gal4 DNA binding domain when both Mint3 and TAZ were present. This transactivation was inhibited by Galangin and BACE inhibitor IV. […] The normalized luciferase activity is expressed as a percentage of the DMSO treated control (FIGS. 7A, 7B). Error bars indicate SEM. (*, p<0.05; **, p<0.01; ***, p<0.001; n=3, student t test).
(§2) This assay system is described by Orcholski et al. (2011) J. Alzheimers Dis., 23(4):689-699. Transactivation is achieved upon transfection with Mint3 and Taz. The ASBI was expected to inhibit only the transactivation of APP-Gal4, not that of APLP2-Gal4. For these experiments cells were co-transfected with a Gal4-luciferase reporter plasmid (to measure transactivation), a beta-galactosidase plasmid (to normalize for transfection efficiency), and the test plasmids identified. The normalized luciferase activity was expressed as fold induction over transcription by APP-Gal4 alone (FIG. 7A), or as fold induction over APLP2-Gal4 alone (FIG. 7B).
(§3) HEK293T cells were co-transfected with five plasmids: (1) pG5E1B-luc, 0.3 μg; (2) pCMV-LacZ, 0.1 μg; (3) pMst-APP (APP-Gal4) or pcDNA3.1-APLP2-Gal4, 0.3 μg; (4) pCMV5-Mint3, 1.0 μg; (5) pEF-N-FLAG-TAZ, 1.0 μg. Cells were harvested 48 hr after transfection in 0.2 ml per well Cell Culture Lysis Buffer (Promega), and their luciferase and β-galactosidase activities were determined with the Promega luciferase assay kit and the Promega β-galactosidase assay kit, respectively. The luciferase activity was standardized by the β-galactosidase activity to control for transfection efficiency and general effects on transcription. Transfections were performed at 80-90% cofluency in six-well plates using Lipofectamine 2000 (Invitrogen).

[2] = tested on: APP-Gal4 transactivation in HEK293T cells; experiment: APP-Gal4/Mint3/TAZ transactivation assay; format: cell-based; conditions: Mint3 and TAZ present; galangin at 10 μM
Excerpt: as §1, §2, §3

[3] = in vivo; parameters: species or system mice; conditions: mouse; for brain Cmax of galangin: sc, 10 mg/kg
Procedure: The brain penetrance of galangin and progalangin were assessed in a standard PK comprising subcutaneous (Sub-Q) injection of 5 adult non-transgenic mice with 50 ul of a 5 mg/ml stock of compound in dimethylsulfoxide (DMSO) or a dose of 10 mg/kg for a 25 g mouse. Injected mice were anesthetized with ketamine/xylazine at 1, 2, 4, 6, and 8 hours and blood collected by cardiac puncture. The mice were then perfused with saline and brain tissue dissected and snap frozen on dry ice. Blood was centrifuged at 3000 rpm for 10 minutes and the plasma supernatant collected. Both plasma and the right hemibrain were sent to Integrated Analytical Solutions (IAS, Berkeley, Calif.) with a reference sample of compound for compound level analysis in tissue and plasma. The compound levels were determined using a LC-MS/MS approach.
CNS exposure studies were performed and consisted of a time-course design to collect heparinized plasma and brains. Following sc administration of the galangin or progalangin (compound-2) at 10 mg/kg, plasma and brain levels of the compounds were determined by quantitative LC/MS/MS methodology. Plasma samples were precipitated with acetonitrile:methanol (1:1) cocktail containing an internal standard. The brain samples were homogenized directly in ethylacetate or extracted from 5M guanidine homogenates with the liquid-liquid method. The resulting supernatant was evaporated to dryness and subjected to the LC/MS/MS analysis. For each compound 5 mice were used for the analysis. The brain-to-plasma ratios and plasma/brain Cmax levels were then determined (see, e.g., FIG. 8).

[4] = tested on: Aβ1-40 and Aβ1-42 levels in hippocampal/entorhinal cortical tissue; experiment: Pilot efficacy testing in PDAPP (J20) AD model mice, Aβ ELISA; format: in vivo; conditions: 40 mpk sc daily for 14 days, hippocampus and cortex, 40 mg/kg
Procedure: Galangin and progalangin (PG-1) were dissolved in 10% solutol/15% DMSO/75% polyethylene glycol (PEG). Stock solutions were prepared at 10 mg/ml for each compound and 100 ul was injected subcutaneously daily for 14 days at a dose of 40 mkd. There were 5 PDAPP AD model J20 mice in both the galangin and progalangin groups, and 9 vehicle-only treated J20 controls. Mice were anesthetized, blood collected for plasma, and brain tissue collected as described above 2 hours after injection on the last day of treatment. The right hemibrain was further microdissected to isolate hippocampus and entorhinal cortex and this combined tissue was used for biochemical analysis. The remaining tissue and plasma was sent to IAS for compound level analysis.
Aβ1-42 and Aβ1-40 levels were determined using the hippocampal/entorhinal cortical tissue. Briefly, frozen tissue samples were weighed, and a 20% w/v sonicate prepared in 5M guandine-HCl/50 mM Tris, pH8. Sonication was performed with sample tubes in ice water, 4×5 seconds at 60 Hz, then 3×5 seconds at 80 Hz. Samples were then rotated at room temperature for 3 hours and frozen at −20° C. until assay. Invitrogen ELISA kits were used for Aβ1-40 and Aβ1-42 according to the manufacturer's instructions.

Compound	APLP2-Gal4 transactivation [1]	APP-Gal4 transactivation [2]	brain penetration [3]	brain Cmax of galangin [3]	Aβ1-40 (Aβ40) levels in brain [4]	Aβ1-42 (Aβ42) levels in brain [4]	Aβ1-40 (Aβ40) levels in brain ([4]; listed as pro-galangin I)	Aβ1-42 (Aβ42) levels in brain ([4]; listed as pro-galangin I)	Aβ1-40 (Aβ40) levels in brain ([4]; listed as progalangin)	Aβ1-42 (Aβ42) levels in brain ([4]; listed as progalangin)	galangin levels after PG-1 injection versus galangin itself [3]	plasma levels versus brain tissue levels [3]
BACE inhibitor IV [reference compound]	inhibited	inhibited	–	–	–	–	–	–	–	–	–	–
C[C@@H]1O[C@@H](OC[C@H]2O[C@@H](Oc3c(-c4ccc(O)c(O)c4)oc4cc(O)cc(O)c4c3=O)[C@H](O)[C@@H](O)[C@@H]2O)[C@H](O)[C@H](O)[C@H]1O [Rutin]	–	–	does not cross the blood-brain barrier	no rutin was detectable in the brain	–	–	–	–	–	–	–	–
CC(=O)Oc1cc(OC(C)=O)c2c(=O)c(O)c(-c3ccccc3)oc2c1 [PG-1, 5,7-Diacetoxy-3-hydroxyflavone]	–	–	–	~100 ng/g	more effective in vivo than galangin	more effective in vivo than galangin	slightly lowered	slightly lowered	reduction	reduction	much higher	Plasma levels were greater than brain tissue levels

— patent USRE49873E1, “APP specific bace inhibitors (ASBIs) and uses thereof” (BUCK INSTITUTE FOR RESEARCH ON AGING, priority 2012, dated 2024)
